Experimental data: BindingDB's records for doi:10.1016/j.ejmech.2018.10.048 (Touro University-California, 2019)

Assay: Inhibition of HIV1 gp41-induced cell-cell fusion between viral protein expressing human HL2/3 cells and TZM-bl target cells preincubated overnight with TZM-bl cells followed by co-incubation with HL2/3 cells for 6 hrs by luciferase reporter gene assay

First: COc1cccc(Cn2ccc3ccc(-c4ccc5c(C)cn(Cc6cccc(C(=O)O)c6)c5c4)cc32)c1
Second: COc1cccc(CN2CCc3ccc(-c4ccc5ccn(Cc6cccc(C(=O)O)c6)c5c4)cc32)c1
The IC50 of the first is 4-fold higher: 4 µM for the first, 1 µM for the second. The second is the more potent here.

First: Cn1ccc2ccc(-c3ccc4c(c3)N(Cc3cccc(C(=O)O)c3)CC4)cc21
Second: Cn1ccc2ccc(-c3ccc4ccn(Cc5cc(F)cc(C(=O)O)c5)c4c3)cc21
The IC50 of the first is higher: > 10 µM for the first, 3.6 µM for the second. The second is the more potent here.

First: O=C(O)c1cccc(Cn2ccc3ccc(-c4ccc5ccn(Cc6cccc([N+](=O)[O-])c6)c5c4)cc32)c1
Second: CC(=O)Nc1cccc(Cn2ccc3ccc(-c4ccc5ccn(Cc6cccc(C(=O)O)c6)c5c4)cc32)c1
The IC50 of the first is 2-fold higher: 2 µM for the first, 1 µM for the second. The second is the more potent here.

First: Nc1ccc(Cn2ccc3ccc(-c4ccc5ccn(Cc6cccc(C(=O)O)c6)c5c4)cc32)cc1
Second: COc1cc(Cn2ccc3ccc(-c4ccc5ccn(Cc6cccc(C(=O)O)c6)c5c4)cc32)cc(C(=O)O)c1
The IC50 of the first is 2.7-fold lower: 3 µM for the first, 8 µM for the second. The first is the more potent here.

Compared with `Cn1cc2ccc(-c3ccc4ccn(Cc5cc(F)cc(C(=O)O)c5)c4c3)cc2n1`, `Cn1ncc2ccc(-c3ccc4ccn(Cc5cc(F)cc(C(=O)O)c5)c4c3)cc21` is 4-fold lower in IC50: 28 µM for the first, 7 µM for the second.

First: CC(C)(C)OC(=O)Nc1cccc(Cn2ccc3ccc(-c4ccc5ccn(Cc6cccc(C(=O)O)c6)c5c4)cc32)c1
Second: CC(C)(C)OC(=O)n1ccc2ccc(-c3ccc4ccn(Cc5cccc(C(=O)O)c5)c4c3)cc21
The IC50 of the first is 2.5-fold higher: 2 µM for the first, 0.8 µM for the second.

Going from `COc1cccc(CNc2cccc(-c3ccc4ccn(Cc5cccc(C(=O)O)c5)c4c3)c2)c1` to `COc1cccc(Cn2ccc3cc(F)c(-c4ccc5ccn(Cc6cccc(C(=O)O)c6)c5c4)cc32)c1`, the IC50 falls from > 10 µM to 3.5 µM. The second is the more potent here.

First: CN(C(=O)OC(C)(C)C)c1cccc(-c2ccc3ccn(Cc4cccc(C(=O)O)c4)c3c2)c1
Second: Cc1cn(C(=O)OC(C)(C)C)c2cc(-c3ccc4ccn(Cc5cccc(C(=O)O)c5)c4c3)ccc12
The IC50 of the first is 2.3-fold higher: 5.9 µM for the first, 2.6 µM for the second.

Compared with `Cn1ccc2cc(F)c(-c3ccc4ccn(Cc5cc(F)cc(C(=O)O)c5)c4c3)cc21`, `Cn1ccc2ccc(-c3ccc4cnn(Cc5cc(F)cc(C(=O)O)c5)c4c3)cc21` is 2.3-fold higher in IC50: 2 µM for the first, 4.6 µM for the second. The first is the more potent here.

Going from `COC(=O)c1cc(Cn2ccc3ccc(-c4ccc5ccn(Cc6cccc(C(=O)O)c6)c5c4)cc32)cc(C(=O)OC)c1` to `COC(=O)c1cc(F)cc(Cn2ccc3ccc(-c4ccc5ccn(Cc6cccc(C(=O)O)c6)c5c4)cc32)c1`, the IC50 rises from 0.2 µM to 0.8 µM (4-fold).

Compared with `COC(=O)c1cccc(Cn2ncc3ccc(-c4ccc5ccn(Cc6cccc(C(=O)O)c6)c5c4)cc32)c1`, `COC(=O)c1cccc(Cn2ccc3ccc(-c4ccc5cnn(Cc6cccc(C(=O)O)c6)c5c4)cc32)c1` is 9.3-fold higher in IC50: 0.3 µM for the first, 2.8 µM for the second.

Compared with `Cn1ncc2ccc(-c3ccc4cnn(Cc5ccc(F)c(C(=O)O)c5)c4c3)cc21`, `Cc1ccc(S(=O)(=O)n2ccc3ccc(-c4ccc5ccn(Cc6cccc(C(=O)O)c6)c5c4)cc32)cc1` is lower in IC50: > 25 µM for the first, 1.3 µM for the second. The second is the more potent here.

Compared with `CC(C)(C)OC(=O)N1CCC(Cn2ccc3ccc(-c4ccc5ccn(Cc6cccc(C(=O)O)c6)c5c4)cc32)CC1`, `COC(=O)c1ccc(Cn2ccc3ccc(-c4ccc5ccn(Cc6cccc(C(=O)O)c6)c5c4)cc32)c(OC)c1` is 1.7-fold higher in IC50: 1.2 µM for the first, 2 µM for the second. The first is the more potent here.
